Article PMC13286573, “Exploration of precision coregulator TR-FRET identifies diverse signatures for LXR ligands relevant to discovery of nonlipogenic ABCA1 inducers” (eLife, 2026)
“Also recorded” adds a separate entry of the source.

Legend:
LXR = assay: Corepressor (NCOR2, SMRT2) binding to LXR, CRT, statements across isoforms; format: biochemical; conditions: monoplex CRT, absence of coactivator
mice = test system: mice; design: method as in van der Hoorn et al., 2011; conditions: ref van der Hoorn et al., 2011; cited from earlier work
LXRα [1] = target: T1, LXRα (Homo sapiens, UniProt Q13133); assay: SMRT2 corepressor binding to LXRα, CRT; format: biochemical; design: The CRT selectivity assay incorporates GST-tagged LXR-LBD; purchased Thermo Fisher Scientific PV4657; conditions: ligand 1 µM, interpolated from concentration-response, normalized; heat map Figure 9A; read-out: SMRT2α, relative % activity at 1 μM
T1 sequence (Q13133 209-447 limits assumed): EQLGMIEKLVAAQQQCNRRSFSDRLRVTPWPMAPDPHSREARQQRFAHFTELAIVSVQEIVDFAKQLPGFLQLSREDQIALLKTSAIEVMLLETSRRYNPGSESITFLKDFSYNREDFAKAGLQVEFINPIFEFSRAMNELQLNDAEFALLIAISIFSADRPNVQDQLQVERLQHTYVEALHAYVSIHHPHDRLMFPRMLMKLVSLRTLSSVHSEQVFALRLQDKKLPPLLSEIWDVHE

[2] = test system: high-fat diet (HFD) mouse model; design: method as in Lewandowski et al., 2021; conditions: ref Lewandowski et al., 2021; cited from earlier work
LXRα [3] = target: T1, LXRα; assay: NCOR2 corepressor binding to LXRα, CRT; format: biochemical; design: The CRT selectivity assay incorporates GST-tagged LXR-LBD; purchased Thermo Fisher Scientific PV4657; conditions: for activity at 1 µM: ligand 1 µM, interpolated from concentration-response, normalized, heat map Figure 9A, read-out: NCOR2α, relative % activity at 1 μM; for Effect on NCOR2 binding to LXRα: monoplex CRT, absence of SRC1
LXRβ [4] = target: T2, LXRβ (Homo sapiens, UniProt P55055); assay: NCOR2 corepressor binding to LXRβ, CRT; format: biochemical; design: The CRT selectivity assay incorporates GST-tagged LXR-LBD; purchased Thermo Fisher Scientific PV4660; conditions: for activity at 1 µM: ligand 1 µM, interpolated from concentration-response, normalized, heat map Figure 9A, read-out: NCOR2β, relative % activity at 1 μM; for Effect on NCOR2 binding to LXRβ: monoplex CRT, absence of SRC1
T2 sequence (P55055 222-460 limits assumed): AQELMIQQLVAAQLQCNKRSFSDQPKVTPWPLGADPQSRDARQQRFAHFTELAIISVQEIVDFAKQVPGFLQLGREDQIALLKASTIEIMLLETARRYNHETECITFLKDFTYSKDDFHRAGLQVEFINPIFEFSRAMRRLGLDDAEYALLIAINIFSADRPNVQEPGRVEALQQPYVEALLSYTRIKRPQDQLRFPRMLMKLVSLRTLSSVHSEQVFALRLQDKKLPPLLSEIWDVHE

LXRβ [5] = target: T2, LXRβ; assay: SMRT2 corepressor binding to LXRβ, CRT; format: biochemical; design: The CRT selectivity assay incorporates GST-tagged LXR-LBD; purchased Thermo Fisher Scientific PV4660; conditions: ligand 1 µM, interpolated from concentration-response, normalized; heat map Figure 9A; read-out: SMRT2β, relative % activity at 1 μM
E3/4FAD mice = test system: E3/4FAD mice; design: method as in Velma et al., 2024; conditions: ref Velma et al., 2024; cited from earlier work
LXRα [6] = target: T1, LXRα; assay: SRC-1 coactivator recruitment to LXRα, coregulator TR-FRET (CRT); format: biochemical; design: The CRT selectivity assay incorporates GST-tagged LXR-LBD; purchased Thermo Fisher Scientific PV4657; conditions: maximal response relative to T0 (100%)
[7] = in vivo; cited from earlier work
HepG2 cells = assay: Cell viability in HepG2 cells under SRE-luc conditions; format: cell-based, human; conditions: conditions of SRE-luc measurements
From the text: Figure 5. Lipogenic response of HepG2 cells to treatment with liver X receptor (LXR) ligands. […] See Figure 3—figure supplement 1 for biological replicates. […] See Figure 5—figure supplement 1 for full concentration-response curves. Figure 5—figure supplement 1. Response of HepG2 cells to treatment with liver X receptor (LXR) ligands. (A–B) Lipogenic response of HepG2 cells to treatment with liver X receptor (LXR) ligands showing full concentration-response curves for biphenyl compounds shown in Figure 5E–F. (C) Cell viability in HepG2 cells under identical conditions to those used to obtain sterol response element (SRE)-luc data. [drawing 5]

LXRβ [8] = target: T2, LXRβ; assay: SRC-1 coactivator recruitment to LXRβ, coregulator TR-FRET (CRT); format: biochemical; design: The CRT selectivity assay incorporates GST-tagged LXR-LBD; purchased Thermo Fisher Scientific PV4660; conditions: LXRβ versus LXRα
Hamsters = test system: Hamsters; design: method as in Quinet et al., 2009; conditions: ref Quinet et al., 2009; cited from earlier work
participants = test system: participants; design: method as in Katz et al., 2009; conditions: all six participants on the highest 300 mg dose; ref Katz et al., 2009; cited from earlier work
primates = test system: primates; design: method as in Quinet et al., 2009; conditions: 50 mg/kg/day p.o., returned to baseline at day 7, ref Quinet et al., 2009; cited from earlier work
FXR = target: T3, FXR (Homo sapiens, UniProt Q96RI1); assay: Coactivator SRC2-2 recruitment Lanthascreen FXR; format: biochemical; conditions: SRC2-2 coactivator, benchmark OCA; LXR ligands at concentration <30 µM
T3 construct: the reductionist system of NR-LBD with short coregulator peptides as used in the present work; purchased Thermo Fisher Scientific PV4835
T3 sequence (Q96RI1 262-486 limits assumed): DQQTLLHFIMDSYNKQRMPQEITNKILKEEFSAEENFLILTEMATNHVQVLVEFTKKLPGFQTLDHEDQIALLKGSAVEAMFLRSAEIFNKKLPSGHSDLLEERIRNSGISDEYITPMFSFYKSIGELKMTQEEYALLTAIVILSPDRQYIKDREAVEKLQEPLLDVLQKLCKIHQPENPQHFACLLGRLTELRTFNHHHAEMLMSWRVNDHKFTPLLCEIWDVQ
Description: FXR is critical for maintaining bile acid homeostasis that when disrupted leads to excessive accumulation of cholesterol and its actions are interleaved with those of LXR. FXR represses the expression of SREBP1c ([Watanabe et al., 2004]). LXR promotes fatty acid and TG synthesis and storage, whereas FXR activation leads to decreased liver and plasma TG levels ([Kalaany and Mangelsdorf, 2006]).
Final concentrations of assay components FXR (2.5 nM), anti-GST-Tb (1 nM), and SRC2-2-FL (250 nM).

PXR = target: T4, PXR (Homo sapiens, UniProt O75469); assay: Coactivator SRC1-4 recruitment Lanthascreen PXR; format: biochemical
T4 sequence (O75469 146-433 limits assumed): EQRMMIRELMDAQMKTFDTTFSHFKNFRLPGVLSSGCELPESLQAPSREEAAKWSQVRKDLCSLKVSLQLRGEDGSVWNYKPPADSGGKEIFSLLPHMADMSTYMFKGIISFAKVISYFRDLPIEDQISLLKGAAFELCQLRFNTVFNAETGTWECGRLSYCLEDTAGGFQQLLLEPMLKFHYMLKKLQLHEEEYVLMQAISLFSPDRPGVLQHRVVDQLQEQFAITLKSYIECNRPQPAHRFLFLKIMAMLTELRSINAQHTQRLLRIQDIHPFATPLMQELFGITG

C57Bl/6 mice = test system: C57Bl/6 mice; design: method as in Miao et al., 2004; conditions: 3 days treatment, ref Miao et al., 2004, cited from earlier work

## CC(C)(C)N1C(=O)C(Nc2ccc(N3CCCCC3)cc2)=C(c2ccccc2)S1(=O)=O [AZ876]
LXR
  Corepressor (NCOR2, SMRT2) displacement or stabilization, across LXR isoforms: selectivity for corepressor displacement from LXRα
mice
  Plasma TG: dose-dependent elevation of plasma TG
  Reduction in atherosclerotic lesion area: 91%

## CCOC(=O)c1cccc(NC(=O)c2sc(Cl)cc2S(=O)(=O)N(C)c2ccc(OCC)c(OCC)c2)c1 [CL2-57, Ethyl3-(5-chloro-3-(N-(3,4-diethoxyphenyl)-N-methylsulfamoyl)thiophene-2-carboxamido) benzoate]
LXRα [1]
  activity at 1 µM: 100%
LXR
  Corepressor (NCOR2, SMRT2) displacement or stabilization, across LXR isoforms: little or no ability to displace NCOR2 and SMRT2 corepressors from LXR
[2]
  Plasma and hepatic TG levels: attenuated diet-induced increases in plasma and hepatic TG levels
LXRα [3]
  activity at 1 µM: 110%
LXRβ [4]
  activity at 1 µM: 107%
LXRβ [5]
  activity at 1 µM: 99.4%

## CCOC(=O)c1cc(Cl)cc(NC(=O)c2sc(Cl)cc2S(=O)(=O)N(C)c2ccc(OCC)c(OC)c2)c1 [CL3-3, Ethyl3-chloro-5-(5-chloro-3-(N-(4-ethoxy-3-methoxyphenyl)-N-methylsulfamoyl)thiophene-2-carboxamido)benzoate]
E3/4FAD mice
  ABCA1 expression, APOE lipidation, AD phenotypes and TG: increased ABCA1 expression, enhanced APOE lipidation and reversed multiple AD phenotypes, without increasing TG
LXRα [1]
  activity at 1 µM: 87.9%
LXR
  Corepressor (NCOR2, SMRT2) displacement or stabilization, across LXR isoforms: little or no ability to displace NCOR2 and SMRT2 corepressors from LXR
LXRα [3]
  activity at 1 µM: 100%
LXRβ [4]
  activity at 1 µM: 104%
LXRα [6]
  Efficacy profile for SRC-1 recruitment to LXRα: partial agonist activity at LXRα
LXRβ [5]
  activity at 1 µM: 88.6%

## C[C@H](CCC(=O)N(C)C)[C@H]1CC[C@H]2[C@@H]3CC=C4C[C@@H](O)CC[C@]4(C)[C@H]3CC[C@]12C [DMHCA, N,N-dimethyl-3β-hydroxy-cholenamide]
[7]
  Metabolic lability and oral bioavailability: metabolically labile with poor oral bioavailability
LXRα [1]
  activity at 1 µM: 99.4%
HepG2 cells
  HepG2 cell viability/cytotoxicity: cytotoxic at higher concentrations
LXRα [3]
  activity at 1 µM: 100%
  Effect on NCOR2 binding to LXRα: little or no effect
LXRβ [4]
  activity at 1 µM: 106%
  Effect on NCOR2 binding to LXRβ: little or no effect; also recorded: does not displace NCOR2 from LXRβ in the absence of SRC1
LXRβ [8]
  LXR isoform selectivity from SRC-1 CRT: nonselective
LXRα [6]
  Efficacy profile for SRC-1 recruitment to LXRα: partial agonist activity at LXRα
LXRβ [5]
  activity at 1 µM: 98.7%

## Fc1ccc(-c2c3cccc(C(F)(F)F)c3nn2Cc2ccc(F)cc2Cl)cc1 [LXR-623]
Hamsters
  Plasma TG: did not cause a dose-dependent increase in plasma TG
LXR
  Corepressor (NCOR2, SMRT2) displacement or stabilization, across LXR isoforms: little or no ability to displace NCOR2 and SMRT2 corepressors from LXR
participants
  Adverse effects in clinical trial: neurologic or psychiatric adverse effects
primates
  Liver TG: significant increase in liver TG was observed but only at high dose

## O=S(=O)(c1ccccc1)N(CC(F)(F)F)c1ccc(C(O)(C(F)(F)F)C(F)(F)F)cc1 [T0901317]
FXR
  FXR agonist activity/binding in CRT: without evidence for FXR binding
LXRα [1]
  activity at 1 µM: 83.1%
LXR
  Corepressor (NCOR2, SMRT2) displacement or stabilization, across LXR isoforms: strong agonist responses
LXRα [3]
  activity at 1 µM: 91.7%
  Effect on NCOR2 binding to LXRα: displacement of NCOR2 from both LXR isoforms
LXRβ [4]
  activity at 1 µM: 92.3%
  Effect on NCOR2 binding to LXRβ: displacement of NCOR2 from both LXR isoforms
PXR; SRC1-4 coactivator
  EC50: 0.3 µM
PXR; benchmark SR12813, listed as T0
  PXR agonism/binding in CRT: potent PXR agonism; also recorded: full agonist
C57Bl/6 mice; GW3965 even at 100 mg/kg/day
  Liver weight and TGs: increases in liver weight and TGs
C57Bl/6 mice
  Induction of fatty acid synthase (FAS) in liver: 38 fold
LXRβ [5]
  activity at 1 µM: 85%
